PubChem BioAssay (NCI)
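Cells were grown in 96-well plates and exposed to each compound for 48 hours at five concentrations; endpoints were interpolated linearly between bracketing concentrations, or set to the highest concentration if not reached. GI50 marks 50% less growth. TGI is the concentration that stops growth completely.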

How the values were obtained:
Experiment in all cases: DTP human tumour cell line panel, 48 h
PC-3 prostate = test system: PC-3 prostate
MALME-3M melanoma = test system: MALME-3M melanoma
NCI-H460 lung = test system: NCI-H460 lung
COLO 205 colon = test system: COLO 205 colon
MOLT-4 leukemia = test system: MOLT-4 leukemia
HL-60(TB) leukemia = test system: HL-60(TB) leukemia
SNB-75 CNS = test system: SNB-75 CNS
BT-549 breast = test system: BT-549 breast
KM12 colon = test system: KM12 colon
HT29 colon = test system: HT29 colon
HOP-92 NSCLC = test system: HOP-92 NSCLC
HOP-62 NSCLC = test system: HOP-62 NSCLC
DU-145 prostate = test system: DU-145 prostate
MDA-MB-231 breast = test system: MDA-MB-231 breast
OVCAR-3 ovarian = test system: OVCAR-3 ovarian
SK-MEL-28 melanoma = test system: SK-MEL-28 melanoma
NCI-H522 lung = test system: NCI-H522 lung
SN12C renal = test system: SN12C renal
CAKI-1 renal = test system: CAKI-1 renal
HCT-15 colon = test system: HCT-15 colon
A549 NSCLC = test system: A549 NSCLC
SF-539 CNS = test system: SF-539 CNS
OVCAR-5 ovarian = test system: OVCAR-5 ovarian
OVCAR-4 ovarian = test system: OVCAR-4 ovarian
SK-MEL-2 melanoma = test system: SK-MEL-2 melanoma
ACHN renal = test system: ACHN renal
SK-OV-3 ovarian = test system: SK-OV-3 ovarian
MDA-MB-435 = test system: MDA-MB-435

Work on `COc1cc(Nc2ccnc(NCCCNc3ccnc4cc(Cl)ccc34)n2)cc(OC)c1` yielded a TGI (PC-3 prostate) of 14200 nM, a GI50 (MALME-3M melanoma) of 2020 nM and a TGI (MALME-3M melanoma) of 3860 nM. For the same compound, the GI50 (NCI-H460 lung) was 1460 nM, the TGI (NCI-H460 lung) was 3770 nM and the GI50 (COLO 205 colon) was 1380 nM. It also gave a TGI (COLO 205 colon) of 2900 nM, a GI50 (MOLT-4 leukemia) of 2230 nM and a TGI (MOLT-4 leukemia) of 6390 nM. For the same compound, the GI50 (HL-60(TB) leukemia) was 2040 nM, the TGI (HL-60(TB) leukemia) was 4540 nM and the GI50 (SNB-75 CNS) was 1310 nM. It also gave a TGI (SNB-75 CNS) of 2580 nM, a GI50 (BT-549 breast) of 1790 nM and a TGI (BT-549 breast) of 4420 nM. It also gave a GI50 (KM12 colon) of 2920 nM, a TGI (KM12 colon) of 9460 nM and a GI50 (HT29 colon) of 1330 nM. For the same compound, the TGI (HT29 colon) was 3620 nM, the GI50 (HOP-92 NSCLC) was 431 nM and the TGI (HOP-92 NSCLC) was 2690 nM. For the same compound, the GI50 (HOP-62 NSCLC) was 1750 nM, the TGI (HOP-62 NSCLC) was 5120 nM and the GI50 (DU-145 prostate) was 3620 nM. It also gave a TGI (DU-145 prostate) of 12200 nM, a GI50 (MDA-MB-231 breast) of 1500 nM and a TGI (MDA-MB-231 breast) of 3160 nM. The GI50 (OVCAR-3 ovarian) was 1950 nM, the TGI (OVCAR-3 ovarian) was 4320 nM and the GI50 (SK-MEL-28 melanoma) was 1660 nM. The TGI (SK-MEL-28 melanoma) was 3090 nM, the GI50 (NCI-H522 lung) was 1800 nM and the TGI (NCI-H522 lung) was 3780 nM. For the same compound, the GI50 (SN12C renal) was 2000 nM, the TGI (SN12C renal) was 7300 nM and the GI50 (CAKI-1 renal) was 1620 nM. The TGI (CAKI-1 renal) was 3260 nM, the GI50 (HCT-15 colon) was 1510 nM and the TGI (HCT-15 colon) was 3090 nM. It also gave a GI50 (A549 NSCLC) of 2090 nM, a TGI (A549 NSCLC) of 5460 nM and a GI50 (SF-539 CNS) of 1580 nM. It also gave a TGI (SF-539 CNS) of 3090 nM, a GI50 (OVCAR-5 ovarian) of 2010 nM and a TGI (OVCAR-5 ovarian) of 6000 nM. For the same compound, the GI50 (OVCAR-4 ovarian) was 1580 nM, the TGI (OVCAR-4 ovarian) was 5100 nM and the GI50 (SK-MEL-2 melanoma) was 1910 nM. For the same compound, the TGI (SK-MEL-2 melanoma) was 3540 nM, the GI50 (ACHN renal) was 1800 nM and the TGI (ACHN renal) was 3530 nM. The GI50 (SK-OV-3 ovarian) was 2420 nM, the TGI (SK-OV-3 ovarian) was 6080 nM and the GI50 (MDA-MB-435) was 1510 nM. For the same compound, the TGI (MDA-MB-435) was 2880 nM.
